Reference: ChEMBL document CHEMBL1201862, “PubChem BioAssay data set” (2004)
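1) Cells in 96-well plates. 2) Compound, 48 h, 5 concentrations. 3) Linear interpolation between surrounding doses. 4) Unreached endpoint = highest concentration. GI50: concentration for 50% inhibition of growth.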 The source made the active and inactive calls. Cut-off read from the data, not from the text of the source: active = GI50 up to about 1.1 µM and inactive = higher.

Columns and labels:
Test in all cases: NCI anticancer screen, dose series, 48 h
[1] = tested on: NCI-H23
[2] = tested on: A549
[3] = tested on: OVCAR-4
[4] = tested on: IGROV-1
[5] = tested on: OVCAR-3
[6] = tested on: UO-31
[7] = tested on: 786-0
[8] = tested on: EKVX
[9] = tested on: OVCAR-8
[10] = tested on: SK-MEL-2
[11] = tested on: HOP-62
[12] = tested on: KM12
[13] = tested on: SNB-75
[14] = tested on: HL-60
[15] = tested on: K562
[16] = tested on: CAKI-1

Measured: GI50

CCCCNC(=O)C1C2CCC(O2)C1C(=O)O (stereo not drawn)
inactive: [1] 29.4 µM | [2] 31 µM | [3] 29.6 µM | [4] > 100 µM | [5] 16 µM | [6] 64.6 µM | [7] 16.1 µM | [8] 13.7 µM | [9] 20.5 µM | [10] 27.5 µM | [11] 34.7 µM | [12] 56.2 µM | [13] 16.8 µM

COC(=O)CC(C(C(=O)OCc1ccccc1)C(C)O)N1C(=O)OC(c2ccccc2)C1c1ccccc1 (stereo not drawn)
inactive: [14] > 100 µM | [1] > 100 µM | [2] 95.5 µM | [3] > 100 µM | [15] 81.1 µM | [4] > 100 µM | [5] > 100 µM | [6] 48.9 µM | [7] > 100 µM | [8] > 100 µM | [9] > 100 µM | [10] > 100 µM | [11] > 100 µM

COC(=O)CC(=O)C[P+](c1ccccc1)(c1ccccc1)c1ccccc1
inactive: [14] 48.9 µM | [1] 141 µM | [2] 197 µM | [16] > 218 µM | [15] 68.5 µM | [4] > 218 µM | [5] 69.7 µM | [7] > 218 µM | [8] > 218 µM | [9] 150 µM | [10] > 218 µM | [11] > 218 µM | [12] > 218 µM

COc1ccccc1NC(=O)c1nc2ccc([N+](=O)[O-])cc2nc1C
inactive: [1] > 100 µM | [2] > 100 µM | [16] > 100 µM | [3] > 100 µM | [15] > 100 µM | [4] > 100 µM | [5] > 100 µM | [6] > 100 µM | [7] > 100 µM | [8] > 100 µM | [9] > 100 µM | [10] > 100 µM | [11] 97.1 µM | [12] > 100 µM | [13] 65.3 µM

O=C(Nc1cc(Cl)c(Cl)cc1Cl)C(=O)C(C(=O)c1ccc2ccccc2c1)C1OC(=O)c2ccccc21 (stereo not drawn)
inactive: [14] 13.2 µM | [1] 3.66 µM | [2] 19.1 µM | [16] > 10 µM | [3] > 10 µM | [4] 16.3 µM | [5] 16.3 µM | [6] 18 µM | [7] 8.11 µM | [8] 15.4 µM | [9] 8 µM | [10] 14.4 µM | [11] 16.1 µM | [12] 14.6 µM
